Assay results reported in patent US10301304B2, “Selective inhibitor of phosphatidylinositol 3-kinase-gamma” (VERTEX PHARMACEUTICALS INCORPORATED, priority 2013, dated 2019).
Where two headings read alike, the source gives them in different places.

Tests used:
[1] = Tissue Distribution in Rats; assay type: in vivo, rat; conditions: rat, 5 mg/kg oral
Description: Compound 1 distributed well into most tissues after an oral dose of 5 mg/kg administered to male rats. […] The tissue to plasma ratio followed the trend of liver>kidney>heart>lung>spleen>brain>CSF. The elimination kinetics of Compound 1 in each examined organ followed plasma kinetics. There was no evidence for tissue accumulation of Compound 1 after a single dose administration.

CYP2C19 = CYP2C19 (Homo sapiens, UniProt P33261); test: Inhibition of CYP Enzymes in Human Liver Microsomes; assay type: in vitro ADME; set-up: from tissue; host or cells: human liver microsomes; conditions: CYP2C19, 30 μM S-Mephenytoin
Description: (§1) Inhibition assays were conducted with selective CYP probes for each CYP enzyme at specific concentrations of substrate (close to its dissociation constant (Km) value). Compound 1 was a moderate inhibitor of CYP 1A2, 2B6 and 2C8; […]

CYP2C8 = CYP2C8 (Homo sapiens, UniProt P10632); test: as above; assay type: in vitro ADME; set-up: from tissue; host or cells: human liver microsomes; conditions: CYP2C8, 2.5 μM Paclitaxel
Description: as §1

CYP2C9 = CYP2C9 (Homo sapiens, UniProt P11712); test: as above; assay type: in vitro ADME; set-up: from tissue; host or cells: human liver microsomes; conditions: CYP2C9, 2.5 μM Diclofenac
Description: as §1

CYP2D6 = CYP2D6 (Homo sapiens, UniProt P10635); test: as above; assay type: in vitro ADME; set-up: from tissue; host or cells: human liver microsomes; conditions: CYP2D6, 10 μM Bufuralol
Description: as §1

CYP1A2 = CYP1A2 (Homo sapiens, UniProt P05177); test: as above; assay type: in vitro ADME; set-up: from tissue; host or cells: human liver microsomes; conditions: CYP1A2, 30 μM Phenacetin
Description: as §1

CYP2B6 = CYP2B6 (Homo sapiens, UniProt P20813); test: as above; assay type: in vitro ADME; set-up: from tissue; host or cells: human liver microsomes; conditions: CYP2B6, 100 μM Bupropion
Description: as §1

Chain of CYP2B6 (P20813 whole entry): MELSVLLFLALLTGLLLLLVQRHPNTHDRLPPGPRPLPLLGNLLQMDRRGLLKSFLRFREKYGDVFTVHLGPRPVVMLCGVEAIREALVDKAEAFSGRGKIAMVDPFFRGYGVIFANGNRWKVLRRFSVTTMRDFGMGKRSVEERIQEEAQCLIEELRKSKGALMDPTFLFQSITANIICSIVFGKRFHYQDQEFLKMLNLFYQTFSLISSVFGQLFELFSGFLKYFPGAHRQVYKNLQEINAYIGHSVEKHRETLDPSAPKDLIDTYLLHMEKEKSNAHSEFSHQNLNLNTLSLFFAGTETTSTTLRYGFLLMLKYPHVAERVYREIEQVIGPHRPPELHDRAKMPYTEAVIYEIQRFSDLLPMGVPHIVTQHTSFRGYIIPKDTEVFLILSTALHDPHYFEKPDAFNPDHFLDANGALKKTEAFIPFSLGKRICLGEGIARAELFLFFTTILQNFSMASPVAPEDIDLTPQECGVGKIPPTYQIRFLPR
Chain of CYP2C8 (P10632 whole entry): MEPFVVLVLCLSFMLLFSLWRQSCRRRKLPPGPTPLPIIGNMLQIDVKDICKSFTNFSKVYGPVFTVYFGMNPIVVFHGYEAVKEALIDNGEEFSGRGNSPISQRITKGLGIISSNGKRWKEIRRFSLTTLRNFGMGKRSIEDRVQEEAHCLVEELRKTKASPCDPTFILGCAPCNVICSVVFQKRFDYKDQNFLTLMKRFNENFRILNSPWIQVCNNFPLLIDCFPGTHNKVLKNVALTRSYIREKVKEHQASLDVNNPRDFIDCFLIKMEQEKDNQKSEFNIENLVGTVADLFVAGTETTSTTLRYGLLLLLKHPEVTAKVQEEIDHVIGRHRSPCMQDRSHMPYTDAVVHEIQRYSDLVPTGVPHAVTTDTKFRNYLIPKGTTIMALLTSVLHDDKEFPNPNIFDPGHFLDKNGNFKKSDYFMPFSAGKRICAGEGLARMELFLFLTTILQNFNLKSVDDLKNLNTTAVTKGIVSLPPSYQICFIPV
Chain of CYP2C9 (P11712 whole entry): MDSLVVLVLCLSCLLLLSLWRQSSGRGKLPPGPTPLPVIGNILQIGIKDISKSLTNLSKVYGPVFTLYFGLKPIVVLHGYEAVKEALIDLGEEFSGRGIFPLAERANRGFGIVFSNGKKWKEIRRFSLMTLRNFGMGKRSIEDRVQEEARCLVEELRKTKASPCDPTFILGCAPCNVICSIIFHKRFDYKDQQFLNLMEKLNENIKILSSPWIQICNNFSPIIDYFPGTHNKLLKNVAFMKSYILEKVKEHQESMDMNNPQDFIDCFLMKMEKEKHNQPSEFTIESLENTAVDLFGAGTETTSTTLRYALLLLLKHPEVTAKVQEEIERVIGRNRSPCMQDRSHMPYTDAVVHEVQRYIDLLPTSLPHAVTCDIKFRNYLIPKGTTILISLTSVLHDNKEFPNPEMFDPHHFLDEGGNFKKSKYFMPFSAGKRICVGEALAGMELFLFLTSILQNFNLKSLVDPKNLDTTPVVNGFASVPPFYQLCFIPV
Chain of CYP2D6 (P10635 whole entry): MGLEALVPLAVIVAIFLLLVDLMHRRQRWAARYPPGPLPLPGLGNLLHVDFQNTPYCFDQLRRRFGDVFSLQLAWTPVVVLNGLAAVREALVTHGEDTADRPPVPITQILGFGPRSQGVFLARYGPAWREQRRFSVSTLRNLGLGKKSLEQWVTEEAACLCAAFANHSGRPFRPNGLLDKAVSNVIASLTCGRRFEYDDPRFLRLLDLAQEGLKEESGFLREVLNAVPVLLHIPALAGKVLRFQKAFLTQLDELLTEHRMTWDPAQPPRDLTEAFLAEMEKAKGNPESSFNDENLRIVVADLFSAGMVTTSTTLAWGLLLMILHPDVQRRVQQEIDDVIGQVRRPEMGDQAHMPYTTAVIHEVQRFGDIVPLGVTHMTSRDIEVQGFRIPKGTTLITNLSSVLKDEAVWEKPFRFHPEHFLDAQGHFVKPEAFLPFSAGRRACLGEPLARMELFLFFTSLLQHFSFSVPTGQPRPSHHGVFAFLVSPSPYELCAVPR
Chain of CYP1A2 (P05177 whole entry): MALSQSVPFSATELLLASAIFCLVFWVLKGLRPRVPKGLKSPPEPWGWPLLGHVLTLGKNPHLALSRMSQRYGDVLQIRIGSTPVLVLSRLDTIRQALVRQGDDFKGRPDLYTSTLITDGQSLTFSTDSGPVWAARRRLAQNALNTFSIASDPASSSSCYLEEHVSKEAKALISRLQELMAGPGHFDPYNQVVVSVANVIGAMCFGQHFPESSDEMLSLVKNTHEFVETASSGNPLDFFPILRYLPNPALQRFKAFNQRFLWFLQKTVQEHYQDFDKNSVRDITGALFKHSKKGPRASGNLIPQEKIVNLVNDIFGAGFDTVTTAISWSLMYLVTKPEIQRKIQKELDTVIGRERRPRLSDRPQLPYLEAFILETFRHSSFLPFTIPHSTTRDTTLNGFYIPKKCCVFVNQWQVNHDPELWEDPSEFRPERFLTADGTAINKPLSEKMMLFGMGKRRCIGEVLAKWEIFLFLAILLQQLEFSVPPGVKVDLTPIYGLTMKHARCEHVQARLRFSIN
Chain of CYP2C19 (P33261 whole entry): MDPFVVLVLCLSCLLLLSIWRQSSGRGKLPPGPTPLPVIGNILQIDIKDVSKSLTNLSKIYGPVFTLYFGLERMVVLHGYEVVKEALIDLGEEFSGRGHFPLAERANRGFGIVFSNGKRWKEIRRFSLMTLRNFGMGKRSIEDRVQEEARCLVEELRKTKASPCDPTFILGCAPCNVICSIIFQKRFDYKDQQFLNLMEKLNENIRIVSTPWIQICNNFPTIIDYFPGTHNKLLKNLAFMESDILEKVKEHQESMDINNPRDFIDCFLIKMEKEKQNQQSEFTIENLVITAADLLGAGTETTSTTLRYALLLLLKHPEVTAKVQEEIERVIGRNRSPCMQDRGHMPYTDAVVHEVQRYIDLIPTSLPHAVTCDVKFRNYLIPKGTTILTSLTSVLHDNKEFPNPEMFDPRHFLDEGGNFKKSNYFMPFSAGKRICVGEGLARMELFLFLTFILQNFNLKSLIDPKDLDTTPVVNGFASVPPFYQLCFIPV

## Cc1cc(-c2cncc([C@@H](O)C(F)(F)F)c2)nc2c1C(=O)N(c1cnn(CC(F)F)c1)C2(C)C [Compound 1, (R)-6-(1-(2,2-difluoroethyl)-1H-pyrazol-4-yl)-4,7,7-trimethyl-2-(5-(2,2,2-trifluoro-1-hydroxyethyl)pyridin-3-yl)-6,7-dihydro-5H-pyrrolo[3,4-b]pyridin-5-one]
[1]; male, liver, 48 hr post dose, read-out: Tissue to Plasma Ratio, Liver
  Kp at 48 hr: 5.32
[1]; male, lung, 0.5 hr post dose, read-out: Tissue to Plasma Ratio, Lung
  Kp at 0.5 h: 1.24
[1]; male, lung, 2 hr post dose, read-out: Tissue to Plasma Ratio, Lung
  Kp at 2 h: 1.38
[1]; male, lung, 7 hr post dose, read-out: Tissue to Plasma Ratio, Lung
  Kp at 7 h: 1.22
[1]; male, lung, 24 hr post dose, read-out: Tissue to Plasma Ratio, Lung
  Kp at 24 h: 1.17
[1]; male, lung, 48 hr post dose, read-out: Tissue to Plasma Ratio, Lung
  Kp at 48 h: 1.31
[1]; male, spleen, 0.5 hr post dose, read-out: Tissue to Plasma Ratio, Spleen
  Kp at 0.5 h: 0.74
[1]; male, spleen, 2 hr post dose, read-out: Tissue to Plasma Ratio, Spleen
  Kp at 2 h: 1.15
[1]; male, spleen, 7 hr post dose, read-out: Tissue to Plasma Ratio, Spleen
  Kp at 7 h: 0.81
[1]; male, spleen, 24 hr post dose, read-out: Tissue to Plasma Ratio, Spleen
  Kp at 24 h: 0.93
[1]; male, spleen, 48 hr post dose, read-out: Tissue to Plasma Ratio, Spleen
  Kp at 48 h: 0.88
[1]; 0.5 hr post dose
  Compound 1 Concentration, Brain: 74 ng/ml or ng/g
  Compound 1 Concentration, CSF: 20 ng/ml or ng/g
  Compound 1 Concentration, Heart: 1730 ng/ml or ng/g
  Compound 1 Concentration, Kidney: 3070 ng/ml or ng/g
  Compound 1 Concentration, Liver: 8710 ng/ml or ng/g
  Compound 1 Concentration, Lung: 2180 ng/ml or ng/g
  Compound 1 Concentration, Plasma: 1760 ng/ml or ng/g
  Compound 1 Concentration, Spleen: 1290 ng/ml or ng/g
[1]; 2 hr post dose
  Compound 1 Concentration, Brain: 129 ng/ml or ng/g
  Compound 1 Concentration, CSF: 23.3 ng/ml or ng/g
  Compound 1 Concentration, Heart: 3280 ng/ml or ng/g
  Compound 1 Concentration, Kidney: 4980 ng/ml or ng/g
  Compound 1 Concentration, Liver: 13700 ng/ml or ng/g
  Compound 1 Concentration, Lung: 2710 ng/ml or ng/g
  Compound 1 Concentration, Plasma: 1960 ng/ml or ng/g
  Compound 1 Concentration, Spleen: 1790 ng/ml or ng/g
[1]; 7 hr post dose
  Compound 1 Concentration, Brain: 111 ng/ml or ng/g
  Compound 1 Concentration, CSF: 27 ng/ml or ng/g
  Compound 1 Concentration, Heart: 3100 ng/ml or ng/g
  Compound 1 Concentration, Kidney: 4770 ng/ml or ng/g
  Compound 1 Concentration, Liver: 11400 ng/ml or ng/g
  Compound 1 Concentration, Lung: 2700 ng/ml or ng/g
  Compound 1 Concentration, Plasma: 2210 ng/ml or ng/g
  Compound 1 Concentration, Spleen: 491 ng/ml or ng/g
[1]; 24 hr post dose
  Compound 1 Concentration, Brain: 30 ng/ml or ng/g
  Compound 1 Concentration, CSF: 5 ng/ml or ng/g
  Compound 1 Concentration, Heart: 771 ng/ml or ng/g
  Compound 1 Concentration, Kidney: 1600 ng/ml or ng/g
  Compound 1 Concentration, Liver: 3010 ng/ml or ng/g
  Compound 1 Concentration, Lung: 617 ng/ml or ng/g
  Compound 1 Concentration, Plasma: 592 ng/ml or ng/g
  Compound 1 Concentration, Spleen: 125 ng/ml or ng/g
[1]; 48 hr post dose
  Compound 1 Concentration, Brain: 9.35 ng/ml or ng/g
  Compound 1 Concentration, CSF: BQL
  Compound 1 Concentration, Heart: 196 ng/ml or ng/g
  Compound 1 Concentration, Kidney: 673 ng/ml or ng/g
  Compound 1 Concentration, Liver: 750 ng/ml or ng/g
  Compound 1 Concentration, Lung: 185 ng/ml or ng/g
  Compound 1 Concentration, Plasma: 141 ng/ml or ng/g
  Compound 1 Concentration, Spleen: BQL
  Tissue to Plasma Ratio, CSF: BQL
[1]; brain and CSF, relative to plasma, male rats, read-out: brain and CSF exposure, % of the plasma exposure
  Kp: < 0.001
[1]; cerebrospinal fluid (CSF), male rats
  Cmax: 27 ng/mL
CYP2C19
  IC50: 21 µM
CYP2C8
  IC50: 7 µM
CYP2C9
  IC50: 32 µM
CYP2D6
  IC50: 64 µM
CYP1A2
  IC50: 7 µM
CYP2B6
  IC50: 4 µM
